# Laboratory results published in ChEMBL document CHEMBL5055685, “Discovery of the First Potent IDO1/IDO2 Dual Inhibitors: A Promising Strategy for Cancer Immunotherapy” (J Med Chem, 2021).
# Activity calls are given as the source filed them. No cut-off for these calls is given here.
# Experiments:
# [1] = molecular target: Serine/threonine-protein kinase pim-3 (Homo sapiens) (UniProt Q86V86); assay: Inhibition of PIM3 (unknown origin) at 1 uM
# [2] = molecular target: Kinase suppressor of Ras 2 (Homo sapiens) (UniProt Q6VAB6); assay: Inhibition of KSR2 (unknown origin) at 1 uM
# [3] = molecular target: Dual specificity mitogen-activated protein kinase kinase 2 (Homo sapiens) (UniProt P36507); assay: Inhibition of MEK2 (unknown origin) at 1 uM
# [4] = molecular target: Protein-tyrosine kinase 2-beta (Homo sapiens) (UniProt Q14289); assay: Inhibition of PYK2 (unknown origin) at 1 uM
# [5] = molecular target: MAP kinase-interacting serine/threonine-protein kinase 1 (Homo sapiens) (UniProt Q9BUB5); assay: Inhibition of MNK1 (unknown origin) at 1 uM
# [6] = molecular target: Serine/threonine-protein kinase B-raf (Homo sapiens) (UniProt P15056); assay: Inhibition of BRAF (unknown origin) at 1 uM
# [7] = molecular target: Myosin-IIIa (Homo sapiens) (UniProt Q8NEV4); assay: Inhibition of MYO3A (unknown origin) at 1 uM
# [8] = molecular target: Serine/threonine-protein kinase Sgk1 (Homo sapiens) (UniProt O00141); assay: Inhibition of SGK1 (unknown origin) at 1 uM
# [9] = Clearance in rat liver microsomes; type: ADME, Microsome; conditions: read-out: CLH
# [10] = molecular target: Serine/threonine-protein kinase tousled-like 1 (Homo sapiens) (UniProt Q9UKI8); assay: Inhibition of TLK1 (unknown origin) at 1 uM
# [11] = molecular target: Dual specificity protein kinase CLK3 (Homo sapiens) (UniProt P49761); assay: Inhibition of CLK3 (unknown origin) at 1 uM
# [12] = molecular target: Tyrosine-protein kinase CSK (Homo sapiens) (UniProt P41240); assay: Inhibition of CSK (unknown origin) at 1 uM
# [13] = Half life in monkey liver microsomes; type: ADME, Macaca mulatta, Microsome; conditions: rhesus monkey
# [14] = molecular target: Tyrosine-protein kinase receptor UFO (Homo sapiens) (UniProt P30530); assay: Inhibition of AXL (unknown origin) at 1 uM
# [15] = molecular target: Calcium/calmodulin-dependent protein kinase type II subunit beta (Homo sapiens) (UniProt Q13554); assay: Inhibition of CAMK2B (unknown origin) at 1 uM
# [16] = molecular target: CDK2/Cyclin O (Homo sapiens) (UniProt P24941+P22674); assay: Inhibition of CDK2/cyclin-O (unknown origin) at 1 uM; type: protein-complex assay
# [17] = molecular target: Ribosomal protein S6 kinase alpha-4 (Homo sapiens) (UniProt O75676); assay: Inhibition of MSK2 (unknown origin) at 1 uM
# [18] = molecular target: Mitogen-activated protein kinase kinase kinase 5 (Homo sapiens) (UniProt Q99683); assay: Inhibition of ASK1 (unknown origin) at 1 uM
# [19] = molecular target: Inactive tyrosine-protein kinase PEAK1 (Homo sapiens) (UniProt Q9H792); assay: Inhibition of PEAK1 (unknown origin) at 1 uM
# [20] = molecular target: Serine/threonine-protein kinase PAK 6 (Homo sapiens) (UniProt Q9NQU5); assay: Inhibition of PAK6 (unknown origin) at 1 uM
# [21] = species: Homo sapiens; assay: Inhibition of PKG2 (unknown origin) at 1 uM
# [22] = molecular target: Tau-tubulin kinase 1 (Homo sapiens) (UniProt Q5TCY1); assay: Inhibition of TTBK1 (unknown origin) at 1 uM
# [23] = molecular target: RAC-beta serine/threonine-protein kinase (Homo sapiens) (UniProt P31751); assay: Inhibition of AKT2 (unknown origin) at 1 uM
# [24] = Half life in mouse liver microsomes; type: ADME, Microsome
# [25] = test system: Mus musculus; assay: In vivo inhibition of IDO1/IDO2 in BALB/c mouse xenografted with human HCT-116 cells assessed as downregulation of Foxp3 expression in tumor by immunohistochemical assay; type: functional, organism-based
# [26] = molecular target: Mitogen-activated protein kinase kinase kinase 6 (Homo sapiens) (UniProt O95382); assay: Inhibition of MEKK6 (unknown origin) at 1 uM
# [27] = molecular target: Receptor-type tyrosine-protein kinase FLT3 (Homo sapiens) (UniProt P36888); assay: Inhibition of FLT3 (unknown origin) at 1 uM
# [28] = molecular target: Rhodopsin kinase GRK7 (Homo sapiens) (UniProt Q8WTQ7); assay: Inhibition of GRK7 (unknown origin) at 1 uM
# [29] = molecular target: Serine/threonine-protein kinase PLK4 (Homo sapiens) (UniProt O00444); assay: Inhibition of PLK4 (unknown origin) at 1 uM
# [30] = molecular target: Mitogen-activated protein kinase 15 (Homo sapiens) (UniProt Q8TD08); assay: Inhibition of ERK7 (unknown origin) at 1 uM
# [31] = molecular target: Cyclin-dependent kinase 1/cyclin B1 (Homo sapiens) (UniProt P06493+P14635); assay: Inhibition of CDK1/cyclinB (unknown origin) at 1 uM; type: protein-complex assay
# [32] = AUC (0 to infinity) in Sprague-Dawley rat at 50 mg/kg, po; type: ADME, organism-based; parameters: time infinity, dose 50 mg/kg, route po; conditions: in vivo
# [33] = test system: Mus musculus; assay: In vivo inhibition of TDO in BALB/c mouse xenografted with human HCT-116 cells assessed as suppression of TDO expression in tumor by immunohistochemical assay; type: functional, organism-based
# [34] = molecular target: Casein kinase II subunit alpha (Homo sapiens) (UniProt P68400); assay: Inhibition of CK2A (unknown origin) at 1 uM
# [35] = molecular target: LIM domain kinase 2 (Homo sapiens) (UniProt P53671); assay: Inhibition of LIMK2 (unknown origin) at 1 uM
# [36] = molecular target: Dual specificity protein kinase CLK1 (Homo sapiens) (UniProt P49759); assay: Inhibition of CLK1 (unknown origin) at 1 uM
# [37] = test system: HCT-116; assay: Antitumor immunity in BALB/c mouse xenografted with human HCT-116 cells assessed as late Treg cells in spleen by propidium iodide staining based flow cytometry analysis (reference value: 10.3 %); type: functional
# [38] = molecular target: Serine/threonine-protein kinase Chk2 (Homo sapiens) (UniProt O96017); assay: Inhibition of CHK2 (unknown origin) at 1 uM
# [39] = molecular target: Serine/threonine-protein kinase VRK1 (Homo sapiens) (UniProt Q99986); assay: Inhibition of VRK1 (unknown origin) at 1 uM
# [40] = molecular target: Serine/threonine-protein kinase Nek9 (Homo sapiens) (UniProt Q8TD19); assay: Inhibition of NEK9 (unknown origin) at 1 uM
# [41] = molecular target: Calcium/calmodulin-dependent protein kinase type 1B (Homo sapiens) (UniProt Q6P2M8); assay: Inhibition of CAMK1B (unknown origin) at 1 uM
# [42] = molecular target: Mitogen-activated protein kinase kinase kinase kinase 4 (Homo sapiens) (UniProt O95819); assay: Inhibition of HGK (unknown origin) at 1 uM
# [43] = test system: Mus musculus; assay: In vivo inhibition of IDO1/IDO2 in BALB/c mouse xenografted with human HCT-116 cells assessed as reduction in KYN level in serum by […]; type: functional, organism-based
# [44] = molecular target: Mitogen-activated protein kinase kinase kinase kinase 1 (Homo sapiens) (UniProt Q92918); assay: Inhibition of HPK1 (unknown origin) at 1 uM
# [45] = molecular target: MAP kinase-activated protein kinase 2 (Homo sapiens) (UniProt P49137); assay: Inhibition of MAPKAPK2 (unknown origin) at 1 uM
# Chain of MAP kinase-activated protein kinase 2 (Homo sapiens) (P49137 whole entry, looked up): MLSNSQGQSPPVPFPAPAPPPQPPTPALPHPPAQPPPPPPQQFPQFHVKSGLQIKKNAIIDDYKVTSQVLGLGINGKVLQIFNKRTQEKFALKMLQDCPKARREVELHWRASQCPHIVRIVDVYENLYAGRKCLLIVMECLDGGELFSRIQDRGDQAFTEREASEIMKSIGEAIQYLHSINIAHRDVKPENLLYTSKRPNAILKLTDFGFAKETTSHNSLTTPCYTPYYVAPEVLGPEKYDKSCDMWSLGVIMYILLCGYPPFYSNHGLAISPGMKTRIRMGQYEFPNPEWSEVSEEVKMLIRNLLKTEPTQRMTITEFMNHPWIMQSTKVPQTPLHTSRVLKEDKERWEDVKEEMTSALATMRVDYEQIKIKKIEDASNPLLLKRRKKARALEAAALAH
# Chain of Rhodopsin kinase GRK7 (Homo sapiens) (Q8WTQ7 whole entry): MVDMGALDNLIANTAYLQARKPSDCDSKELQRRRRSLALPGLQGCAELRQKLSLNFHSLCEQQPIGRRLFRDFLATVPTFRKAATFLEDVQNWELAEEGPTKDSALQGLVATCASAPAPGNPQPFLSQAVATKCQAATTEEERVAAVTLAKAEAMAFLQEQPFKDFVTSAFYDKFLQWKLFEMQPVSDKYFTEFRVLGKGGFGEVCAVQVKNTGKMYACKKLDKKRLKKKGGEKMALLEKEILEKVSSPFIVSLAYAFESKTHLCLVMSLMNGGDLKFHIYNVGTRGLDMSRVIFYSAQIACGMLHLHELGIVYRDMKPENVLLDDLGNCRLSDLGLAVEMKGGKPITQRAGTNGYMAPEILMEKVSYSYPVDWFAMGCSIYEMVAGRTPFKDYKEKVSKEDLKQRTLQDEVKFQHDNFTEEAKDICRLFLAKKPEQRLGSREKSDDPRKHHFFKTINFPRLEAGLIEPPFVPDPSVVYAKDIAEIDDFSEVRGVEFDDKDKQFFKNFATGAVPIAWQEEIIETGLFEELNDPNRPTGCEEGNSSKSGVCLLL
# Chain of Calcium/calmodulin-dependent protein kinase type 1B (Homo sapiens) (Q6P2M8 whole entry): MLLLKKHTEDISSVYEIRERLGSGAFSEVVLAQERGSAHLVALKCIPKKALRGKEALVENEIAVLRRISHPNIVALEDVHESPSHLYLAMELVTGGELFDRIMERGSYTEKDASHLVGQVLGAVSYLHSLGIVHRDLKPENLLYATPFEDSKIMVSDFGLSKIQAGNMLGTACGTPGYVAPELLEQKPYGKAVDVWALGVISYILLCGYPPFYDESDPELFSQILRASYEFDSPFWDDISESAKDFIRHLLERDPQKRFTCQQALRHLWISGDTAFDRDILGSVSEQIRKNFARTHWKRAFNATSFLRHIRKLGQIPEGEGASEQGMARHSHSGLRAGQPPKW
# Chain of RAC-beta serine/threonine-protein kinase (Homo sapiens) (P31751 whole entry): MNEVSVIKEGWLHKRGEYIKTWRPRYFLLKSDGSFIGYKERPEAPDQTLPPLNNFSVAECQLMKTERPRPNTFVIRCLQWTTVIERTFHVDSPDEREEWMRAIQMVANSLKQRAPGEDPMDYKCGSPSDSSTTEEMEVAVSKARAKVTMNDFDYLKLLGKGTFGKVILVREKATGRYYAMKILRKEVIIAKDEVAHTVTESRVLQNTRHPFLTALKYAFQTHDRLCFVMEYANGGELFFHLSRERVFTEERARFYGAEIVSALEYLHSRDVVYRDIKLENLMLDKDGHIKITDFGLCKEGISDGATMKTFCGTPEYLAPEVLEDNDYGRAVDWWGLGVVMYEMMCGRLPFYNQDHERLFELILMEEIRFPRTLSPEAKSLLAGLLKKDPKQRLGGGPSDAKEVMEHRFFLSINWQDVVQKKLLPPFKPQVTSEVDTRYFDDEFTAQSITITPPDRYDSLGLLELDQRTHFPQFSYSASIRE
# Chain of Mitogen-activated protein kinase 15 (Homo sapiens) (Q8TD08 whole entry): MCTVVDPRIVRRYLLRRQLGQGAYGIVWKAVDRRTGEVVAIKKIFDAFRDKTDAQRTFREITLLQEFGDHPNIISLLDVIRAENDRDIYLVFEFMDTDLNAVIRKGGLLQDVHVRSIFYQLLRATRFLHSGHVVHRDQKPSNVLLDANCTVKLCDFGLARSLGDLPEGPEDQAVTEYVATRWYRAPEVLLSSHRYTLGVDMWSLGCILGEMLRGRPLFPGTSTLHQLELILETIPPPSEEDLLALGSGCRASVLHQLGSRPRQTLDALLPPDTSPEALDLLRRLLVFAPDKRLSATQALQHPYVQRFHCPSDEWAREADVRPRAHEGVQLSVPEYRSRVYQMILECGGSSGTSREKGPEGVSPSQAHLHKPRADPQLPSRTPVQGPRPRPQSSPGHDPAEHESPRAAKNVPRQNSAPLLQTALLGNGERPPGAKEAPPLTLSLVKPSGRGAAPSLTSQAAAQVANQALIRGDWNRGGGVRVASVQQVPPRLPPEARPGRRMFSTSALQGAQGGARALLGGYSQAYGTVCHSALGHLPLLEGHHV
# Chain of Serine/threonine-protein kinase VRK1 (Homo sapiens) (Q99986 whole entry): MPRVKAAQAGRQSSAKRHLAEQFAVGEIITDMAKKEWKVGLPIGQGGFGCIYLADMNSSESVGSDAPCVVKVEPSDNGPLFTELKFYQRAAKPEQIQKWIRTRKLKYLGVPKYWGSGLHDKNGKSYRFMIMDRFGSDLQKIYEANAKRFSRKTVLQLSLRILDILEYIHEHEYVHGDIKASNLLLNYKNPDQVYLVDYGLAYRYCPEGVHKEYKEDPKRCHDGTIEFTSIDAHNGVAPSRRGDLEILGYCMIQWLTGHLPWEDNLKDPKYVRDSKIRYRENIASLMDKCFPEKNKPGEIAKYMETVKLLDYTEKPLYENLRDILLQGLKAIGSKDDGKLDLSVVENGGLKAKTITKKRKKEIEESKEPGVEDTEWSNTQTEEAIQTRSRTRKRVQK
# Chain of MAP kinase-interacting serine/threonine-protein kinase 1 (Homo sapiens) (Q9BUB5 whole entry, looked up): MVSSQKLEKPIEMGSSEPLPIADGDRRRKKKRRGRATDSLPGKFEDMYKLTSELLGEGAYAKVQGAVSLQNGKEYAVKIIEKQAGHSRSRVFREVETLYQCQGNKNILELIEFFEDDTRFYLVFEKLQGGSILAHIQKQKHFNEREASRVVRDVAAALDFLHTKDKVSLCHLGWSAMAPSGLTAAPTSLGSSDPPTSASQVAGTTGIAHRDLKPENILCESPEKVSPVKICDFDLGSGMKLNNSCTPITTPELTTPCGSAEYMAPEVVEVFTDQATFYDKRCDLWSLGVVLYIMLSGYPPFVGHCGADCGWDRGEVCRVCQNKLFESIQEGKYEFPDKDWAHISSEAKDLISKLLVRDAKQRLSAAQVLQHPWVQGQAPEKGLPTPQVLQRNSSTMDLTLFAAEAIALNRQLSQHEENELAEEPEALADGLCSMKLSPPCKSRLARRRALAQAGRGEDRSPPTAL
# Chain of Mitogen-activated protein kinase kinase kinase 6 (Homo sapiens) (O95382 whole entry): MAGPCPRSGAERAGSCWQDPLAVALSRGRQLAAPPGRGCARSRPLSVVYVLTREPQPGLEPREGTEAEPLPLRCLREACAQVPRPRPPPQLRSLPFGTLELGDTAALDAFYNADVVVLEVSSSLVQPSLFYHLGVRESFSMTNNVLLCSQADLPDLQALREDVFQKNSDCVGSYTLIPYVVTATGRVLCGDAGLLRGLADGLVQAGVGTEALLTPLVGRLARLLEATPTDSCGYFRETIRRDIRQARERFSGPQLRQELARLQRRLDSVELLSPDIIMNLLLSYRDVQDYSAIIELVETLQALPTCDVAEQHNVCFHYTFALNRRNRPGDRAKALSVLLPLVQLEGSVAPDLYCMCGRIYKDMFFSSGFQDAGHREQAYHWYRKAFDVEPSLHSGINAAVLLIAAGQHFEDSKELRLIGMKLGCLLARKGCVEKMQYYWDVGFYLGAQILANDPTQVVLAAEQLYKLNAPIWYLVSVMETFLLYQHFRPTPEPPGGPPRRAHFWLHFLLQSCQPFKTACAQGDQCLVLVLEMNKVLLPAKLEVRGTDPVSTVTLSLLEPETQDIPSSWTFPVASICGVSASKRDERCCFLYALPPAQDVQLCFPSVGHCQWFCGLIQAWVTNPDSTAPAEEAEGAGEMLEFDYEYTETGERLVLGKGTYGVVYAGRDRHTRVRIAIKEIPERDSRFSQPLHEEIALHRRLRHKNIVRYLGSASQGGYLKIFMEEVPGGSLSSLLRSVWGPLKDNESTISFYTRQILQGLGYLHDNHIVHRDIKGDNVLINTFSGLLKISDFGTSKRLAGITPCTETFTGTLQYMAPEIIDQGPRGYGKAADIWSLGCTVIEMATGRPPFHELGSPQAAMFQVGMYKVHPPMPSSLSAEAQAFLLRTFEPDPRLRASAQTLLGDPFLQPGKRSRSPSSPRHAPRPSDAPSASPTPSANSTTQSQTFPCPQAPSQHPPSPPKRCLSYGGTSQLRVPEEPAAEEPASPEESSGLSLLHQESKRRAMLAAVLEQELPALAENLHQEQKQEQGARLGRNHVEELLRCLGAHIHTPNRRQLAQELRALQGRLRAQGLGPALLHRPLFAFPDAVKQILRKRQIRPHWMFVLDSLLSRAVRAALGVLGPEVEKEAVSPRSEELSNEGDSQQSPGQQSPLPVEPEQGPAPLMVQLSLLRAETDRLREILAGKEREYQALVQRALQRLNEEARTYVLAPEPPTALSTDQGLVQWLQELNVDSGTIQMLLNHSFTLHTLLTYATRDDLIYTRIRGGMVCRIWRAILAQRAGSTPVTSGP
# Chain of Tyrosine-protein kinase CSK (Homo sapiens) (P41240 2-450 limits assumed): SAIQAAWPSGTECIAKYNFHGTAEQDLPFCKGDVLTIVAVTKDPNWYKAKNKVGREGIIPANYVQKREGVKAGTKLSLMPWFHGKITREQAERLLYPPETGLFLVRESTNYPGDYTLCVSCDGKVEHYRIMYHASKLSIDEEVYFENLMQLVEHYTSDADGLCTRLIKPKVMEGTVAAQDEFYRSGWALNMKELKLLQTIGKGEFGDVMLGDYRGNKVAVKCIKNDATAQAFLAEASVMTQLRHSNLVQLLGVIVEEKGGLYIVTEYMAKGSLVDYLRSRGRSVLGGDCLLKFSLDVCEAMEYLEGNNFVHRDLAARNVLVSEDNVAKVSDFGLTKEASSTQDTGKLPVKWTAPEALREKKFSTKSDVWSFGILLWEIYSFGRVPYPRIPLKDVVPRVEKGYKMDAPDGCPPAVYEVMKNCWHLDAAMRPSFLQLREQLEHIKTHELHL
smiles,measurement,setting,value
OCCOCc1cn(CCNc2nonc2/C(=N/O)Nc2ccc(F)c(Br)c2)nn1,inhibition,[1],inactive
same,inhibition,[2],inactive
same,inhibition,[3],inactive
same,inhibition,[4],inactive
same,inhibition,[5],inactive
same,inhibition,[6],inactive
same,inhibition,[7],inactive
same,inhibition,[8],inactive
same,microsomal CLint,[9],65.3 µL/min/mg
same,inhibition,[10],inactive
same,inhibition,[11],inactive
same,inhibition,[12],inactive
same,half-life,[13],38.6 min
same,inhibition,[14],inactive
same,inhibition,[15],inactive
same,inhibition,[16],inactive
same,inhibition,[17],inactive
same,inhibition,[18],inactive
same,inhibition,[19],inactive
same,inhibition,[20],inactive
same,inhibition,[21],inactive
same,inhibition,[22],inactive
same,inhibition,[23],inactive
same,half-life,[24],43.2 min
same,inhibition,[25],Active
same,inhibition,[26],inactive
same,inhibition,[27],inactive
same,inhibition,[28],inactive
same,inhibition,[29],inactive
same,inhibition,[30],inactive
same,inhibition,[31],inactive
same,AUC(0-inf),[32],3950 ng·h/mL
same,inhibition,[33],inactive
same,inhibition,[34],inactive
same,inhibition,[35],inactive
same,inhibition,[36],inactive
same,Activity,[37],7.24%
same,inhibition,[38],inactive
same,inhibition,[39],inactive
same,inhibition,[40],inactive
same,inhibition,[41],inactive
same,inhibition,[42],inactive
same,inhibition,[43],Active
same,inhibition,[44],inactive
same,inhibition,[45],inactive
